Test results reported in patent US20110257220A1, “3,11 b-cis-Dihydrotetrabenazine for the Treatment of Schizophrenia and Other Psychoses” (CAMBRIDGE LABORATORIES (IRELAND) LIMITED, priority 2005, published 2011).
“Also recorded” adds a separate entry of the source.

Legend:
Dopamine D2L Receptor = molecular target: T1, Dopamine D2L Receptor (Homo sapiens, UniProt P14416); test: Dopamine D2L receptor radioligand binding ([3H] Spiperone); conditions: 10 μM solution; for inhibition at 10 µM: read-out: Percentage Inhibition of Specific Binding, D2L Receptor
T1 construct: expressed in transfected cells; host or cells: CHO cells
T1 sequence (P14416 whole entry): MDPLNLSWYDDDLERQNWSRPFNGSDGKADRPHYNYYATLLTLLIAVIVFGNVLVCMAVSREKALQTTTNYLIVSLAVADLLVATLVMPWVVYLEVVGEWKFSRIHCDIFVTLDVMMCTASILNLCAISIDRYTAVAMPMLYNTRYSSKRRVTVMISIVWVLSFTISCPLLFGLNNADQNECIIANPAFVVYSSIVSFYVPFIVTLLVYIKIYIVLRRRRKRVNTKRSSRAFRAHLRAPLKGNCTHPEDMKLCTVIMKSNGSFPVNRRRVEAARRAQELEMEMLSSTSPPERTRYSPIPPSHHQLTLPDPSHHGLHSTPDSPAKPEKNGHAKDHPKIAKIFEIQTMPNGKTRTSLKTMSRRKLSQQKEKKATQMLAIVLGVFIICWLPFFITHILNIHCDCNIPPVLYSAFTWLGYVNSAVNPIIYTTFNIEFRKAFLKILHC
Method: (§1) The four dihydrotetrabenazine isomers A, B, C and D were subjected to specific binding assays to test their ability to bind to the receptors and transporter proteins described below. The results are set out in Table 5
(d) Dopamine D2L, Receptor:
• Reference: Bunzo et al., Nature, 336:783-787 (1988) • Source: Human recombinant CHO cells • Ligand: 0.16 nM [3H]

Dopamine D3 Receptor = molecular target: T2, Dopamine D3 Receptor (Homo sapiens, UniProt P35462); test: Dopamine D3 receptor radioligand binding ([3H] Spiperone); conditions: 10 μM solution; for inhibition at 10 µM: read-out: Percentage Inhibition of Specific Binding, D3 Receptor
T2 construct: expressed in transfected cells; host or cells: CHO cells
T2 sequence (P35462 whole entry): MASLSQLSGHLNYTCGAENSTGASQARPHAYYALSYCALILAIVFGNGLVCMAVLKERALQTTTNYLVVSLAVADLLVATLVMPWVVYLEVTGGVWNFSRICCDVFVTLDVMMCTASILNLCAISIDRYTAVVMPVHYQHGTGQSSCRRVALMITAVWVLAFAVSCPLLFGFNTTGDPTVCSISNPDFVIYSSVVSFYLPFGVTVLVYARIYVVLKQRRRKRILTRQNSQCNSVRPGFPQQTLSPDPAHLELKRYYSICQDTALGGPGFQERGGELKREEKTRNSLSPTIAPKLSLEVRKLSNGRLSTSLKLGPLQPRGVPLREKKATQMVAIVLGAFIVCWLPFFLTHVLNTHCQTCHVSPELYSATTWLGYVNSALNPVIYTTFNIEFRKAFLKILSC
Method: as §1
(e) Dopamine D3 Receptor:
• Reference: Sokoloff et al., Nature, 347:146-151, (1990) • Source: Human recombinant CHO cells • Ligand: 0.7 nM [3H]

Sigma σ2 Receptor = molecular target: T3, Sigma σ2 Receptor (Rattus norvegicus, UniProt Q5U3Y7); test: Sigma σ2 receptor radioligand binding ([3H] Ifenprodil); design: species or system Wistar rat; conditions: 10 μM solution; for inhibition at 10 µM: read-out: Percentage Inhibition of Specific Binding, σ2 Receptor
T3 construct: from tissue; host or cells: Wistar rat brain
T3 sequence (Q5U3Y7 1-176): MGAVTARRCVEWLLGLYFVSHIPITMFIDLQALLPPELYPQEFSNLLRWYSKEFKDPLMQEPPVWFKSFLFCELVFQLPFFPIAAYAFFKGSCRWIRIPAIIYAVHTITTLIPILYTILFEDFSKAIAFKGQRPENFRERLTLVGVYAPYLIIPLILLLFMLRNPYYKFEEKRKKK
Method: as §1
• Reference: Hashimoto et al., Eur. J. Pharmacol., 236:159-163, (1993) • Source: Wistar rat brain • Ligand: 3 nM [3H]

α2c Adrenergic receptor = molecular target: T4, α2c Adrenergic receptor (Homo sapiens, UniProt P18825); test: α2c Adrenergic receptor radioligand binding ([3H] MK-912); conditions: 10 μM solution; for inhibition at 10 µM: read-out: Percentage Inhibition of Specific Binding, α2c receptor
T4 construct: expressed in transfected cells; host or cells: insect Sf9 cells
T4 sequence (P18825 1-462): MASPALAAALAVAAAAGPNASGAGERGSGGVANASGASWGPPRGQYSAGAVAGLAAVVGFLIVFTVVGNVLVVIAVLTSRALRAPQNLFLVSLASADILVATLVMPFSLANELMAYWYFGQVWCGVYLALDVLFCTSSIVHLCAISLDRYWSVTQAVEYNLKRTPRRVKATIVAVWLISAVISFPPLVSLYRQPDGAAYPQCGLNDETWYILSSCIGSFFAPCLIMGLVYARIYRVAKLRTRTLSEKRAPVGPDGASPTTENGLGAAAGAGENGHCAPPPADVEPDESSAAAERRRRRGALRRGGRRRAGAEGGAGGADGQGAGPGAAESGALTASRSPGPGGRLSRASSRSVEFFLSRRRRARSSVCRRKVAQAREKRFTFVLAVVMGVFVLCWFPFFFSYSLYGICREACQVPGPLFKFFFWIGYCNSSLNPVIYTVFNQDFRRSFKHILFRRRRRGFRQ
Method: as §1
(k) α2, Adrenergic Receptor
α2c Adrenergic receptor binding activity was determined using the method of Uhlen et al., J. Pharmacol. Exp. Ther. (1994), 271:1558-1565, and the following conditions: • Source: Human recombinant insect Sf9 cells • Ligand: 1 nM [^3H]

[1] = test system: female hooded-Lister rats; test: Novel object recognition (NOR) task, sub-chronic PCP-induced cognitive deficit; type: in vivo, rat
Excerpt: Certain pre-clinical tests allow the observation of relatively subtle cognitive deficits in the rat that resemble cognitive symptoms in subjects with schizophrenia. The cognitive deficits observed are seen in behaviours such as working memory deficits which may be measured by recognition tasks such as the novel object recognition (NOR) paradigm. A recognition memory task allows the comparison between presented stimuli and previously stored information. Ennaceur & Delacour, Behav. Brain Res. 31: 47-59 (1988) described the NOR test in rats which was based on the differential exploration of familiar and new objects. The NOR test is a non-rewarded, ethologically relevant paradigm based on the spontaneous exploratory behaviour of rats which measures working memory. Each session consists of two trials. In the first trial, the rats are exposed to two identical objects in an open field. During the second trial, rats are exposed to two dissimilar objects, one familiar object from the first trial and one new object. Object recognition in rats can be measured as the difference in time spent exploring the familiar and the new object.
The abovementioned rodent model was used to assess the effects of the Isomer A on sub-chronic PCP-induced deficits in working memory using the novel object recognition (NOR) paradigm. The working hypothesis was that both acute and sub-chronic treatment with Isomer A will attenuate the selective working memory deficit induced by sub-chronic PCP as measured in the NOR test paradigm.
Rats are allowed to habituate to the empty test box and the behavioural test room environment for 1 hour on day 1. Prior to behavioural testing on day 2 rats are given a further 3 minutes habituation.
Following the 3 minute habituation period, the rats are given two 3 minute trials (T1 and T2) which are separated by a 1 minute inter-trial interval in the home cage during which the objects are changed.
In this trial, the animals are allowed to explore two identical objects (A1 and A2) for 3 minutes.
In this trial, the animals explore a familiar object (A) from T1 and a novel object (B) for 3 minutes. The familiar object presented during T2 is a duplicate of the object presented in T1 in order to avoid any olfactory trails.
The object exploration is defined by animals licking, sniffing or touching the object with the forepaws whilst sniffing, but not leaning against, turning around, standing or sitting on the object. The exploration time (s) of each object (A1, A2, A and B) in each trial are recorded using two stopwatches and the following factors are calculated: • Total exploration time of both objects in the acquisition trial (s). • Total exploration time of both objects in the retention trial (s). • Habituation of exploratory activity. The LMA includes the exploration time, as measured by the number of lines crossed, for both the trials. • Discrimination index, which is calculated as shown below;
(time spent exploring novel object−time spent exploring familiar object)÷total time spent in exploring the objects
Behaviour in all trials was recorded on video for subsequent blind scoring.
50 female hooded-Lister rats (Harlan, UK) were used as subjects for these studies. Rats were housed in groups of 5 under standard laboratory conditions under a 12 hr light:dark cycle, lights on at 0700 hr. All testing was carried out in the light phase. Food and water were freely provided. […]

COc1cc2c(cc1OC)[C@@H]1C[C@@H](O)[C@H](CC(C)C)CN1CC2 (single isomer, unassigned) [Isomer A]
inhibition at 10 µM (Dopamine D2L Receptor): 87%
inhibition at 10 µM (Dopamine D3 Receptor): 69%
inhibition at 10 µM (Sigma σ2 Receptor): 64%
inhibition at 10 µM (α2c Adrenergic receptor): 56%
Sedation (observation of behaviour) ([1]; 30 mg/kg Isomer A p.o., rats in NOR arena): did not appear sedated
Locomotor activity in the test arena (number of lines crossed, T1+T2) ([1]; 30 mg/kg Isomer A p.o., sub-chronic PCP rats, FIG. 4): significant effect to reduce locomotor activity
Attenuation of sub-chronic PCP-induced deficit, retention phase (exploration time of familiar vs novel object) ([1]; Isomer A 3-30 mg/kg p.o. acute, 30 min before test, sub-chronic PCP 2 mg/kg i.p. twice daily 7 days, FIG. 2): has efficacy to attenuate the sub-chronic PCP-induced deficit; also recorded: significant at the highest dose
Exploration of two identical objects in the acquisition phase (T1) ([1]; Isomer A 3-30 mg/kg p.o., sub-chronic PCP rats, FIG. 1): no effect

COc1cc2c(cc1OC)[C@H]1C[C@H](O)[C@@H](CC(C)C)CN1CC2 (single isomer, unassigned) [Isomer B]
inhibition at 10 µM (Dopamine D2L Receptor): 16%
inhibition at 10 µM (Dopamine D3 Receptor): 7%
inhibition at 10 µM (Sigma σ2 Receptor): 64%
inhibition at 10 µM (α2c Adrenergic receptor): -6%

COc1cc2c(cc1OC)C1CC(O)C(CC(C)C)CN1CC2 (single isomer, unassigned) [Isomer C]
inhibition at 10 µM (Dopamine D2L Receptor): -14%
inhibition at 10 µM (Dopamine D3 Receptor): 9%
inhibition at 10 µM (Sigma σ2 Receptor): 61%
inhibition at 10 µM (α2c Adrenergic receptor): 3%

COc1cc2c(cc1OC)[C@H]1C[C@@H](O)[C@H](CC(C)C)CN1CC2 (single isomer, unassigned; isomer d) [Isomer D]
Percentage Inhibition of Specific Binding, D2L Receptor (Dopamine D2L Receptor): 58%
Percentage Inhibition of Specific Binding, D3 Receptor (Dopamine D3 Receptor): 63%
Percentage Inhibition of Specific Binding, σ2 Receptor (Sigma σ2 Receptor): 69%
Percentage Inhibition of Specific Binding, α2c receptor (α2c Adrenergic receptor): 74%
